Test results from patent US9169260B2 (MERCK SHARP & DOHME CORP., priority 2011, dated 2015).

Target: GST tagged IRAK-4 (Homo sapiens (Human), UniProt Q9NWZ3)
Experiment: IRAK-4 Kinase Assay (IMAP fluorescence polarization)
Format: biochemical
Conditions: 100 μM ATP, 30 minutes at 25° C.
Summary of the method: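 Activity was read by IMAP fluorescence polarization, where phosphopeptide binding to M(III) nanoparticles raises FP. The 30-minute, 25° C reaction used 100 μM ATP, 100 nM RP7030 substrate and 0.5 nM GST-IRAK-4 in pH 7.2 Tris buffer with MgCl2, DTT and Tween 20.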

GST tagged IRAK-4, sequence (Q9NWZ3 whole entry): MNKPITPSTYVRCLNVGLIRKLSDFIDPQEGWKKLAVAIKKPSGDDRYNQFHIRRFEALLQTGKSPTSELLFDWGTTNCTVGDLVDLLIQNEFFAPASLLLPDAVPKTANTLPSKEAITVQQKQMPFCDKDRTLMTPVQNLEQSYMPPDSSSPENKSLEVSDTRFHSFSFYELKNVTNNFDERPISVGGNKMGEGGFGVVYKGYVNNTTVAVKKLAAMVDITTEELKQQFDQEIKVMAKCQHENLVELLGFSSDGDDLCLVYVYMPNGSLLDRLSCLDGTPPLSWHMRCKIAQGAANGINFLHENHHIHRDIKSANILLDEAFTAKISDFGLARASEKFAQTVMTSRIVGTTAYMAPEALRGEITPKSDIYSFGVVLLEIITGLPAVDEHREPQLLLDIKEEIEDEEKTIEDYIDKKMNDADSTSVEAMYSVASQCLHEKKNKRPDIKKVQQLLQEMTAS

| Compound | IC50 [µM] |
| --- | --- |
| COC(=O)N1CCC(c2cc(NC(=O)c3cnn4cc(Br)cnc34)n(-c3ccc(C)cc3)n2)CC1 [Example 118, methyl 4-(5-(6-bromopyrazolo[1,5-a]pyrimidine-3-carboxamido)-1-(p-tolyl)-1H-pyrazol-3-yl)piperidine-1-carboxylate] | < 0.1 |
| Cc1ccc(-n2nc(C3CCN(S(C)(=O)=O)CC3)cc2NC(=O)c2cnn3cc(C(N)=O)cnc23)cc1 [Example 120, N3-(3-(1-(methylsulfonyl)piperidin-4-yl)-1-(p-tolyl)-1H-pyrazol-5-yl)pyrazolo[1,5-a]pyrimidine-3,6-dicarboxamide] | < 0.1 |
| Cc1ccc(-n2nc(-c3cccnc3)cc2NC(=O)c2cnn3cccnc23)cc1 [Example 123, N-(3-(pyridin-3-yl)-1-(p-tolyl)-1H-pyrazol-5-yl)pyrazolo[1,5-a]pyrimidine-3-carboxamide] | < 0.1 |
| Cc1ccc(-n2nc(-c3ccncc3)cc2NC(=O)c2cnn3cccnc23)cc1 [Example 125, N-(3-(pyridin-4-yl)-1-(p-tolyl)-1H-pyrazol-5-yl)pyrazolo[1,5-a]pyrimidine-3-carboxamide] | < 0.1 |
| COc1ccc(-c2cc(NC(=O)c3cnn4cccnc34)n(-c3ccc(C)cc3)n2)cc1OC [Example 133, N-(3-(3,4-dimethoxyphenyl)-1-(p-tolyl)-1H-pyrazol-5-yl)pyrazolo[1,5-a]pyrimidine-3-carboxamide] | < 0.1 |
| Cc1ccc(-n2nc(-c3ccc(S(C)(=O)=O)cc3)cc2NC(=O)c2cnn3cccnc23)cc1 [Example 134, N-(3-(4-(methylsulfonyl)phenyl)-1-(p-tolyl)-1H-pyrazol-5-yl)pyrazolo[1,5-a]pyrimidine-3-carboxamide] | < 0.1 |
| Cc1ccc(-n2nc(C3=CCNCC3)cc2NC(=O)c2cnn3cccnc23)cc1 [Example 138, N-(3-(1,2,3,6-tetrahydropyridin-4-yl)-1-(p-tolyl)-1H-pyrazol-5-yl)pyrazolo[1,5-a]pyrimidine-3-carboxamide] | < 0.1 |
| Cc1ccc(-n2nc(C3=CCN(S(C)(=O)=O)CC3)cc2NC(=O)c2cnn3cccnc23)cc1 [Example 139, N-(3-(1-(methylsulfonyl)-1,2,3,6-tetrahydropyridin-4-yl)-1-(p-tolyl)-1H-pyrazol-5-yl)pyrazolo[1,5-a]pyrimidine-3-carboxamide] | < 0.1 |
| Cc1ccc(-n2nc(C3=CCN(C)CC3)cc2NC(=O)c2cnn3cccnc23)cc1 [Example 140, N-(3-(1-methyl-1,2,3,6-tetrahydropyridin-4-yl)-1-(p-tolyl)-1H-pyrazol-5-yl)pyrazolo[1,5-a]pyrimidine-3-carboxamide] | < 0.1 |
| Cc1ccc(-n2nc(-c3ccc(CN4CCCC4)cc3)cc2NC(=O)c2cnn3cccnc23)cc1 [Example 143, N-(3-(4-(pyrrolidin-1-ylmethyl)phenyl)-1-(p-tolyl)-1H-pyrazol-5-yl)pyrazolo[1,5-a]pyrimidine-3-carboxamide] | < 0.1 |
| Cc1ccc(-n2nc(-c3ccc(CN4CCN(C)CC4)cc3)cc2NC(=O)c2cnn3cccnc23)cc1 [Example 144] | < 0.1 |
| Cc1ccc(-n2nc(-c3ccc(CN4CCOCC4)cc3)cc2NC(=O)c2cnn3cccnc23)cc1 [Example 145, N-(3-(4-(morpholinomethyl)phenyl)-1-(p-tolyl)-1H-pyrazol-5-yl)pyrazolo[1,5-a]pyrimidine-3-carboxamide] | < 0.1 |
| O=C(Nc1cc(C2CCNCC2)nn1-c1ccc(C2CC2)cn1)c1cnn2cccnc12 [Example 146, N-(1-(5-cyclopropylpyridin-2-yl)-3-(piperidin-4-yl)-1H-pyrazol-5-yl)pyrazolo[1,5-a]pyrimidine-3-carboxamide] | < 0.1 |

Same assay, conditions: 100 μM ATP, 30 minutes at 25° C.; μM

| Compound | IC50 [µM] |
| --- | --- |
| Cc1ccc(-n2nc(C3CCN(S(C)(=O)=O)CC3)cc2NC(=O)c2cnn3cc(C#N)cnc23)cc1 [Example 121, 6-cyano-N-(3-(1-(methylsulfonyl)piperidin-4-yl)-1-(p-tolyl)-1H-pyrazol-5-yl)pyrazolo[1,5-a]pyrimidine-3-carboxamide] | < 1 |
| COc1ccc(-c2cc(NC(=O)c3cnn4cccnc34)n(-c3ccc(C)cc3)n2)cn1 [Example 124, N-(3-(6-methoxypyridin-3-yl)-1-(p-tolyl)-1H-pyrazol-5-yl)pyrazolo[1,5-a]pyrimidine-3-carboxamide] | < 1 |
| O=C(Nc1cc(-c2ccncc2)nn1-c1ccc(F)cc1)c1cnn2cccnc12 [Example 126, N-(1-(4-fluorophenyl)-3-(pyridin-4-yl)-1H-pyrazol-5-yl)pyrazolo[1,5-a]pyrimidine-3-carboxamide] | < 1 |
| COc1ccc(-n2nc(-c3ccncc3)cc2NC(=O)c2cnn3cccnc23)cc1 [Example 127, N-(1-(4-methoxyphenyl)-3-(pyridin-4-yl)-1H-pyrazol-5-yl)pyrazolo[1,5-a]pyrimidine-3-carboxamide] | < 1 |
| Cc1ccc(-n2nc(-c3ccncc3)cc2NC(=O)c2cnn3cccnc23)cc1F [Example 128, N-(1-(3-fluoro-4-methylphenyl)-3-(pyridin-4-yl)-1H-pyrazol-5-yl)pyrazolo[1,5-a]pyrimidine-3-carboxamide] | < 1 |
| COc1cc(-c2cc(NC(=O)c3cnn4cccnc34)n(-c3ccc(C)cc3)n2)ccn1 [Example 129, N-(3-(2-methoxypyridin-4-yl)-1-(p-tolyl)-1H-pyrazol-5-yl)pyrazolo[1,5-a]pyrimidine-3-carboxamide] | < 1 |
| Cc1ccc(-n2nc(C3CC3)cc2NC(=O)c2cnn3cccnc23)cc1 [Example 130, N-(3-cyclopropyl-1-(p-tolyl)-1H-pyrazol-5-yl)pyrazolo[1,5-a]pyrimidine-3-carboxamide] | < 1 |
| COc1ccc(-c2cc(NC(=O)c3cnn4cccnc34)n(-c3ccc(C)cc3)n2)cc1 [Example 131, N-(3-(4-methoxyphenyl)-1-(p-tolyl)-1H-pyrazol-5-yl)pyrazolo[1,5-a]pyrimidine-3-carboxamide] | < 1 |
| COc1ccc(-c2cc(NC(=O)c3cnn4cccnc34)n(-c3cccc(F)c3)n2)cc1 [Example 132, N-(1-(3-fluorophenyl)-3-(4-methoxyphenyl)-1H-pyrazol-5-yl)pyrazolo[1,5-a]pyrimidine-3-carboxamide] | < 1 |
| Cc1ccc(-n2nc(-c3ccc(F)cc3)cc2NC(=O)c2cnn3cccnc23)cc1 [Example 135, N-(3-(4-fluorophenyl)-1-(p-tolyl)-1H-pyrazol-5-yl)pyrazolo[1,5-a]pyrimidine-3-carboxamide] | > 1 |
| Cc1ccc(-n2nc(-c3cncc(F)c3)cc2NC(=O)c2cnn3cccnc23)cc1 [Example 136, N-(3-(5-fluoropyridin-3-yl)-1-(p-tolyl)-1H-pyrazol-5-yl)pyrazolo[1,5-a]pyrimidine-3-carboxamide] | > 1 |
| Cc1ccc(-n2nc(-c3cncnc3)cc2NC(=O)c2cnn3cccnc23)cc1 [Example 137, N-(3-(pyrimidin-5-yl)-1-(p-tolyl)-1H-pyrazol-5-yl)pyrazolo[1,5-a]pyrimidine-3-carboxamide] | > 1 |
| Cc1ccc(-n2nc(CN3CCCC3)cc2NC(=O)c2cnn3cccnc23)cc1 [Example 142, N-(3-(pyrrolidin-1-ylmethyl)-1-(p-tolyl)-1,4-pyrazol-5-yl)pyrazolo[1,5-a]pyrimidine-3-carboxamide] | > 1 |
